Earlier results as cited in patent US6486118B1, “Detergent compositions” (Unilever Home & Personal Care USA, division of Conopco, Inc., priority 1999, dated 2002).
Like-named read-outs stand apart in the source and are kept apart here.

[1] = other common materials, by contrast, at 20° C.

Row | SMILES | Water Solubility (g/100 g) (highly water-soluble materials, grams of solid to form a saturated solution in 100 grams of water at 20° C.) | Water Solubility (g/100 g) [1] [g/100 g]
1 | NC(N)=O [Urea] | >100 | 
2 | O=P(O)(O)OP(=O)(O)OP(=O)(O)O [Sodium tripolyphosphate anhydrous] |  | 15
3 | O=BO[O-].[Na+] [Sodium perborate anhydrous] |  | 3.7
